According to PMC8962522, “Direct interaction of TrkA/CD44v3 is essential for NGF-promoted aggressiveness of breast cancer cells” (Journal of Experimental & Clinical Cancer Research : CR, 2022):

Columns and labels:
[1] = test system: TrkA-His tagged extracellular domain protein (Ala 34-Gly423); test: MST binding of CD44v3 mimetic peptides to TrkA; settings: TrkA-His 200 nM labelled with RED-Tris-NTA, PBS-T
Method: MST was conducted using an NT.115 A Pico MST instrument (Nano Temper Technologies GmbH) equipped with red and blue filter sets. The TrkA-His tagged extracellular domain protein (Ala 34-Gly423) (9966-TK-050; R&D Systems, United Kingdom), diluted to 200 nM in PBS-T buffer (supplied by the vendor), was labeled using a Monolith His-Tag Labeling Kit with RED-Tris-NTA (Nano Temper). The RED-Tris-NTA dye was diluted in PBS-T to 100 nM. The mix was incubated at RT in the dark for 30 min. Next, an extract expressing CD44v3-labeled protein (CD44v3-His) and ligand and/or TrkA was mixed at a 1:1 ratio and incubated at RT in the dark for 15 min. For the binding check, peptides and TrkA-His were used. Capillaries were filled individually and loaded into the instrument. The data were acquired using high MST power and 100% LED. The data were analyzed using MO Control Software (Nano Temper).
Fig. 2 The C-terminal region of CD44v3 and the His112 residue of TrkA are involved in the CD44v3/TrkA interaction. TrkA/CD44v3 complex association was detected by the proximity ligation assay (PLA) in wild-type TrkA- or TrkA_H112A- and CD44v3-expressing COS-7 cells. Proximity ligation assays were performed after 0, 5 and 30 min of NGF treatment (100 ng/ml). Representative images of signals detected by PLA (A) and their quantification (B). Sequence of CD44 exon variant 3 and deletion mutant Δ3 or Δ4 (C). TrkA/CD44v3 complex association was detected by PLA in wild-type TrkA and CD44v3 wild type or CD44v3 deleted mutant Δ3 or Δ4 expressing COS-7 (D, E). Sequence of CD44v3 mimetic peptides (F) and structure (G). TrkA binding to CD44v3 mimetic peptides by microscale thermophoresis (H) and effects of CD44v3 mimetic peptides 3 (RDRHLSFSGSG) and 4 ([…]) on TrkA/CD44v3 complex formation (I, J). Quantification of PLA was performed using ImageJ software (30 fields per condition of three different experiments). Statistical analyses were performed using one-way ANOVA followed by Bonferroni’s posttest.
To block the TrkA-CD44v3 association, 4 mimetic peptides of CD44v3 were designed corresponding to zone 1 [(K) STSSNTISAG], zone 2 (WEPNEENEDE), zone 3 (RDRHLSFSGSG) and zone 4 (IDDDEDFISST) (Fig. 2F & G). The binding capacities of the CD44v3 mimetic peptides to TrkA were then measured by MST (Fig. 2H). […] To confirm mimetic peptide 4 binding, we assessed its ability to bind TrkA using nanoscale differential scanning fluorimetry (nanoDSF; Supplementary Fig. 6A & B).

[2] = cited from earlier work
From the text: With more functions than those of a membrane receptor, CD44 is a multifunctional platform implicated in numerous physiological and disease mechanisms. In cancer, it has many functions (e.g., adhesion, migration/invasion, growth, differentiation, and resistance to therapies) depending on the splice variant expressed, corresponding ligands, posttranscriptional modifications, and association with growth factors and different membrane proteins.

Substance	binding to TrkA by MST (in words) [1]	binding to heparin (in words) [2]
IDDDEDFISST [Peptide 4, mimetic peptide 4 (…) corresponding to the C-terminal region of CD44v3]	could bind TrkA	–
NGF: recombinant human β-NGF (Alomone Labs, Israel)	–	does not bind heparin
